Measurements published in patent US7186861B2 (priority 2002, dated 2007).

Test system: Plasmopara viticola
Assay: Activity against downy mildew of grapes caused by Plasmopara viticola (lasting effect, inoculation 7 days after spraying)
Type: in vivo
Details: 63 ppm active compound; potted vines Müller-Thurgau; inoculated 7 days after spraying; untreated plants 90% infected
Description: The active compounds were prepared, separately or together, as a 10% emulsion in a mixture of 70% by weight of cyclohexanone, 20% by weight of Nekanil® LN (Lutensol® AP6, wetting agent with an emulsifying and dispersing action based on ethoxylated alkylphenols) and 10% by weight of Wettol® EM (nonionic emulsifier based on ethoxylated castor oil) and were appropriately diluted with water to the desired concentration.
Leaves of potted vines of the variety “Müller-Thurgau” were sprayed to runoff point with an aqueous preparation of active compound prepared from a stock solution consisting of 10% of active compound, 85% of cyclohexanone and 5% of emulsifier. In order to be able to assess the lasting effects of the substances, the plants, after the spray coating had dried on, were placed in a greenhouse for 7 days. Only then were the leaves inoculated with an aqueous suspension of zoospores of Plasmopara viticola. The vines were then initially placed in a chamber saturated with water vapor at 24° C. for 48 hours and subsequently in a greenhouse at temperatures of between 20 and 30° C. for 5 days. After this period of time, the plants were once more placed in a humid chamber for 16 hours to accelerate the eruption of sporangiphores. The extent to which the infection had developed on the undersides of the leaves was then determined visually.

Row | Structure (SMILES) | infection
1 | CCC=C(C(=O)NCCc1ccc(OCC)c(OC)c1)c1ccc(Cl)c(Cl)c1 [Compound I-44] | 3%
2 | CC/C=C(/C(=O)NCCc1ccc(OCC)c(OC)c1)c1ccc(Cl)c(Cl)c1 [compound A] | 40%
